This passage reports GI50 and TGI results from PubChem BioAssay (NCI).

Common to all, as to test: inhibition of tumour cell growth, NCI panel, 48 h
Assay [1] has as its system OVCAR-8 ovarian.
The test system of assay [2] is SNB-75 CNS.
Assay [3] deals with UO-31 renal.
Assay [4] deals with SN12C renal.
The test system of assay [5] is DU-145 prostate.
Assay [6] concerns ACHN renal.
The subject of assay [7] is NCI-H522 lung.
In assay [8] the test system is SNB-19 CNS.

“And” between values parts separate entries of the source, which are not always exact repeats. Equal entries are not always repeated.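 Growth conditions: 96-well plates. Treatment: test compound, 48 hours, 5 concentrations. Analysis: linear interpolation between bracketing concentrations; unreached endpoints set to highest concentration. GI50 marks 50% less growth. The concentration for full growth arrest is given as TGI.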

`O=C(Nc1ncc(Cc2ccc(Cl)cc2)s1)c1ccc2c(c1)OCCO2`: the GI50 in assay [1] was 170 nM; in assay [2], 26.6 nM; in assay [3] it was 83.4 nM; in assay [4], 155 nM; in assay [5] it was 50 nM; in assay [6], 64.5 nM. Besides, the GI50 is 33.1 nM in assay [7] and 80 nM in assay [8]. The TGI is > 100000 nM in assay [1]; 3400 nM in assay [2]; > 100000 nM in assay [3]; > 100000 nM in assay [4]; 9380 nM in assay [5]; > 54500 nM in assay [6]. In assay [8], the TGI was > 92400 nM.
As to `OCCCNC(=S)Nc1ccc(-c2nc3ccccc3s2)cc1`, the GI50 in assay [1] is 33700 nM; in assay [2], 18800 nM; in assay [3] it was 12000 nM; in assay [4] it was 22800 nM; in assay [5] it was 40900 nM; in assay [6] it was 21500 nM. Moreover, the GI50 is 12600 nM in assay [7] and 32200 nM in assay [8]. In addition, the TGI in assay [1] was 91900 nM; in assay [2], 78800 nM; in assay [3] it was 60700 nM; in assay [4] it was 54800 nM; in assay [5], > 100000 nM; in assay [6] it was 47700 nM. The TGI is 38700 nM in assay [7] and > 100000 nM in assay [8].
As for `COc1cc([C@@H]2c3cc4c(cc3[C@H](O)[C@H]3COC(=O)[C@@H]23)OCO4)cc(OC)c1OC`, the GI50 is 707 nM and 397 nM in assay [1]; 256 nM and 45.5 nM in assay [2]; 480 nM and 602 nM in assay [3]; 677 nM and 400 nM in assay [4]; 544 nM and 237 nM in assay [5]; 568 nM and 1410 nM in assay [6]. Also, the GI50 in assay [7] is 244 nM and 281 nM; in assay [8], 462 nM and 231 nM. Moreover, the TGI in assay [1], in assay [2], in assay [3], in assay [4], in assay [6] and in assay [8] was > 100000 nM throughout.
Consider `C#CCOc1c(OC)cc(C(=O)/C(C)=C/c2cccc(N=[N+]=[N-])c2)cc1OC`, for which the GI50 in assay [1] was 427 nM; in assay [3] it was 751 nM; in assay [4] it was 677 nM; in assay [5] it was 296 nM; in assay [6] it was 682 nM; in assay [7] it was 155 nM. The GI50 in assay [8] was 333 nM. For the same compound, the TGI was > 100000 nM in assay [1]; > 100000 nM in assay [3]; > 100000 nM in assay [4]; > 100000 nM in assay [5]; > 100000 nM in assay [6]; 800 nM in assay [7]. For the same compound, the TGI in assay [8] is > 100000 nM.
As for `COC(C(=O)[C@@H](O)[C@@H](C)O)[C@@H]1Cc2cc3cc(O[C@H]4C[C@@H](O[C@H]5C[C@@H](O)[C@H](O)C(C)O5)[C@H](O)C(C)O4)c(C)c(O)c3c(O)c2C(=O)[C@H]1O[C@H]1C[C@@H](O[C@H]2C[C@@H](O[C@H]3C[C@@H](O)[C@@H](O)C(C)O3)[C@@H](O)C(C)O2)[C@H](O)C(C)O1` (stereo partly specified), the GI50 in assay [1] is 514 nM; in assay [2], 165 nM; in assay [3], 605 nM; in assay [4], 265 nM; in assay [5], 610 nM; in assay [6], 485 nM. Further, the GI50 is 58 nM in assay [7] and 324 nM in assay [8]. In addition, the TGI in assay [1] was > 32500 nM; in assay [2], 3700 nM; in assay [3], 4750 nM; in assay [4] it was > 32500 nM; in assay [5], > 32500 nM; in assay [6] it was > 32500 nM. The TGI in assay [7] is 1620 nM; in assay [8], > 32500 nM.
Regarding `CCOC(=O)C1=C(N)Oc2cc(OC)ccc2C1c1ccc(F)c(F)c1` (stereo unspecified), the GI50 in assay [1] was 3280 nM; in assay [2] it was 1640 nM; in assay [3], 5220 nM; in assay [4], 4970 nM; in assay [5], 2560 nM; in assay [6] it was 5740 nM. The GI50 in assay [7] was 498 nM; in assay [8], 1830 nM. Moreover, the TGI in assay [1] came to 19200 nM; in assay [2] it was 11100 nM; in assay [3] it was 19700 nM; in assay [4], 19500 nM; in assay [5], 11400 nM; in assay [6], 19800 nM. The TGI in assay [7] came to 10200 nM; in assay [8] it was 17400 nM.
With `CC(=O)O[C@@H]1CC(=O)O[C@@H]2C[C@@H](CC/C(Cl)=C/C/C=C\1C)O[C@@H]2CO`, the GI50 in assay [1] was > 25000 nM; in assay [2] it was > 25000 nM; in assay [3], > 25000 nM; in assay [4], > 25000 nM; in assay [5], > 22100 nM; in assay [6] it was > 25000 nM. Besides, the GI50 in assay [7] and in assay [8] was > 25000 nM throughout. For the same compound, the TGI in assay [1], in assay [2], in assay [3], in assay [4], in assay [5] and in assay [6] was > 25000 nM each time. Further, the TGI in assay [7] and in assay [8] was > 25000 nM in each case.
With `COc1cc2c(/C=C3/C(=O)Nc4c3ccc3ccccc43)c(Cl)[nH]c2cc1C`, the GI50 in assay [1] is 17.6 nM; in assay [3], 21.6 nM; in assay [4], 71 nM; in assay [5], 165 nM; in assay [6], 26.1 nM; in assay [7] it was 12.3 nM. Moreover, in assay [8], the GI50 is 40.2 nM. Further, the TGI in assay [1] was 1820 nM; in assay [3] it was > 34100 nM; in assay [4], > 19600 nM; in assay [5], > 15700 nM; in assay [6], 6920 nM; in assay [8], > 50000 nM.
For the compound `COc1ccc2c(c1)N(CCO)C1=C(C(=O)OC1)C2c1cccc(Br)c1` (stereo unspecified), the GI50 in assay [1] was 140 nM; in assay [2], 64.7 nM; in assay [3] it was 77.6 nM; in assay [4], 450 nM; in assay [5] it was 156 nM; in assay [6] it was 82.4 nM. In addition, the GI50 is 22.6 nM in assay [7] and 141 nM in assay [8]. The TGI in assay [1] was 13900 nM; in assay [2] it was > 100000 nM; in assay [3], > 85300 nM; in assay [4], > 88100 nM; in assay [5], 1150 nM; in assay [6] it was > 100000 nM. For the same compound, the figures for the TGI in assay [7] and in assay [8] were 69.3 nM and > 100000 nM, respectively.
